In the supplement of paper PMC10307832:

What was measured:
Experiment in all cases: relative viability (nuclei count vs DMSO), 5 days (fraction); higher = more cells survive
Carfilzomib + Dasatinib = compound: CC(C)C[C@H](NC(=O)[C@H](CCc1ccccc1)NC(=O)CN1CCOCC1)C(=O)N[C@@H](Cc1ccccc1)C(=O)N[C@@H](CC(C)C)C(=O)[C@@]1(C)CO1 [Carfilzomib] + Cc1nc(Nc2ncc(C(=O)Nc3c(C)cccc3Cl)s2)cc(N2CCN(CCO)CC2)n1 [Dasatinib] (partner 0.075 µM)
In short: (§1)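 Relative viability was taken as the ratio of nuclei in treated wells to nuclei in vehicle wells. Lung cancer cell lines in 1536-well plates received compounds by pin tool one day after seeding, either one drug alone or a fixed anchor-drug dose plus five library-drug doses (not always all listed) in √10 steps. Nuclei were counted on 4× images after 5 days of treatment, and values are medians of duplicate plates.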

Olaparib + Pictilisib = compound: O=C(c1cc(Cc2n[nH]c(=O)c3ccccc23)ccc1F)N1CCN(C(=O)C2CC2)CC1 [Olaparib] + CS(=O)(=O)N1CCN(Cc2cc3nc(-c4cccc5[nH]ncc45)nc(N4CCOCC4)c3s2)CC1 [Pictilisib] (partner 1 µM)
In short: as §1

Crizotinib + Olaparib = compound: C[C@@H](Oc1cc(-c2cnn(C3CCNCC3)c2)cnc1N)c1c(Cl)ccc(F)c1Cl [Crizotinib] + O=C(c1cc(Cc2n[nH]c(=O)c3ccccc23)ccc1F)N1CCN(C(=O)C2CC2)CC1 [Olaparib] (partner 8 µM)
In short: as §1

Carfilzomib + Lapatinib = compound: CC(C)C[C@H](NC(=O)[C@H](CCc1ccccc1)NC(=O)CN1CCOCC1)C(=O)N[C@@H](Cc1ccccc1)C(=O)N[C@@H](CC(C)C)C(=O)[C@@]1(C)CO1 [Carfilzomib] + CS(=O)(=O)CCNCc1ccc(-c2ccc3ncnc(Nc4ccc(OCc5cccc(F)c5)c(Cl)c4)c3c2)o1 [Lapatinib] (partner 2 µM)
In short: as §1

Cell Line	relative viability (Carfilzomib + Dasatinib; first compound 0.001 µM)	relative viability (Carfilzomib + Dasatinib; first compound 0.003162 µM)	relative viability (Carfilzomib + Dasatinib; first compound 0.01 µM)	relative viability (Carfilzomib + Dasatinib; first compound 0.03162 µM)	relative viability (Carfilzomib + Dasatinib; first compound 0.1 µM)	relative viability (Olaparib + Pictilisib; first compound 0.08 µM)	relative viability (Olaparib + Pictilisib; first compound 0.253 µM)	relative viability (Olaparib + Pictilisib; first compound 2.53 µM)	relative viability (Olaparib + Pictilisib; first compound 8 µM)	relative viability (Crizotinib + Olaparib; first compound 0.01 µM)	relative viability (Crizotinib + Olaparib; first compound 0.03162 µM)	relative viability (Crizotinib + Olaparib; first compound 0.1 µM)	relative viability (Crizotinib + Olaparib; first compound 0.3162 µM)	relative viability (Crizotinib + Olaparib; first compound 1 µM)	relative viability (Carfilzomib + Lapatinib; first compound 0.001 µM)	relative viability (Carfilzomib + Lapatinib; first compound 0.003162 µM)	relative viability (Carfilzomib + Lapatinib; first compound 0.01 µM)	relative viability (Carfilzomib + Lapatinib; first compound 0.03162 µM)	relative viability (Carfilzomib + Lapatinib; first compound 0.1 µM)
NCI-H3122	0.868	0.925	0.909	0.69	0.162	0.629	0.532	0.587	0.627	0.597	0.57	0.61	0.637	0.631	1.03	0.942	1.09	0.978	0.806
PC-3 [JPC-3]	0.914	0.972	0.996	0.597	0.428	0.857	0.592	0.712	0.673	1.09	1.22	1.13	–	1.12	0.42	0.455	0.463	0.435	0.209
PC-14	0.311	0.305	0.241	0.0289	0.0424	0.872	0.59	0.601	0.466	0.274	0.28	0.307	0.401	0.289	0.372	0.301	0.317	0.301	0.0926
RERF-LC-KJ	0.792	0.82	0.867	0.388	0.184	0.491	0.522	0.648	0.526	0.843	0.887	0.928	0.919	0.802	0.845	0.836	0.894	0.841	0.378
SK-LU-1	0.167	0.189	0.236	0.0906	0.117	0.608	0.569	0.602	0.353	0.504	0.438	0.451	0.477	0.405	0.931	0.944	0.729	0.127	0.191
SK-MES-1	0.323	0.454	0.409	0.197	0.107	0.399	0.297	0.355	0.328	0.683	0.733	0.761	0.762	0.637	0.451	0.469	0.443	0.43	0.267
SW 1573	0.653	0.764	0.372	0.0426	0.0643	0.526	–	0.508	0.381	0.44	0.459	0.542	0.483	0.383	1.17	1.22	1.04	1.03	0.121
UMC-11	0.52	0.412	0.415	0.393	0.184	0.909	0.687	0.658	0.307	0.35	0.306	0.375	0.494	0.317	0.857	1.02	0.783	0.509	0.182
